The first assay has as its target T1, VHL-ElonginBC complex (Homo sapiens, UniProt P40337).
T1 construct: His-TEV (His-tag with TEV protease site) (cleaved yes); made in house; host or cells: E. coli BL21(DE3)
Put plainly: Fluorescence-polarization (FP) competitive binding assay for VHL. Conditions: VHL ligands; VHL-ElonginBC complex and fluorescent probe both 5 nM; read-out: FP Binding affinity IC50. The procedure:
Cloning and Purification of VHL-ElonginBC complex. The DNA sequence of VHL (coding for residues 54-213) was constructed by PCR and inserted into a His-TEV expression vector^58 using ligation-independent cloning. The DNA sequences of Elongin B (encoding residues 1-118) and Elongin C (encoding residues 1-96) were constmcted by PCR and inserted into pCDFDuet 1 using Gibson assembly.^59 BL21(DE3) cells were transformed simultaneously with both plasmids and grown in Terrific Broth at 37° C. until an OD600 of 1.2. The cells were induced overnight with 0.4 mM IPTG at 24° C. Pelleted cells were freeze-thawed then resuspended in 20 mM Tris HCl pH7.0, 200 mM NaCl and 0.1% β-mercaptoethanol (bME) containing protease inhibitors. The cell suspension was lysed by sonication and debris removed via centrifugation. The supernatant was incubated at 4° C. for 1 hr with Ni-NTA (Qiagen) pre-washed in 20 mM Tris-HCl pH 7.0, 200 mM NaCl and 10 mM Imidazole. The protein complex was eluted in 20 mM Tris-HCl pH 7.0, 200 mM NaCl and 300 mM Imidazole, dialyzed into 20 mM Tris-HCl pH 7.0, 150 mM NaCl, and 0.01% bME and incubated with TEV protease overnight at 4° C. The protein sample was reapplied to the Ni-NTA column to remove the His-tag. The flow through containing the VHL complex was diluted to 75 mM NaCl and applied to a HiTrap Q column (GE Healthcare). The sample was eluted with a salt gradient (0.075-1 M NaCl), concentrated and further purified on a Superdex S75 column (GE Healthcare) pre-equilibrated with 20 mM Bis-Tris 7.0, 150 mM NaCl and 1 mM DTT. Samples were aliquoted and stored at −80° C.
Binding Affinities of VHL ligands to VHL. A fluorescence-polarization (FP) competitive assay was established using VHL-ElonginBC complex and a fluorescently tagged probe (SI). The IC50 and Ki values of VHL ligands were determined in competitive binding experiments. Mixtures of 5 μL of compounds in DMSO and 95 μL of preincubated protein/tracer complex solution were added into assay plates which were incubated at rt for 60 min with gentle shaking. Final concentrations of VHL-ElonginBC complex and fluorescent probe were both 5 nM. Negative controls containing protein/probe complex only (equivalent to 0% inhibition) and positive controls containing only free probes (equivalent to 100% inhibition) were included in each assay plate. FP values in millipolarization units (mP) were measured using the Infinite M-1000 plate reader (Tecan U.S., Research Triangle Park, N.C.) in Microfluor 1 96-well, black, round-bottom plates (Thermo Scientific, Waltham, Mass.) at an excitation wavelength of 485 nm and an emission wavelength of 530 nm. IC50 values were determined by nonlinear regression fitting of the competition curves. Ki values of competitive inhibitors were obtained directly by nonlinear regression fitting, based upon the KD values of the probe and concentrations of the protein and probe in the competitive assays. All the FP competitive experiments were performed in duplicate in three independent experiments.
`CC(=O)N[C@H](C(=O)N1C[C@H](O)C[C@H]1C(=O)N[C@@H](C)c1ccc(C(C)(C)C)cc1)C(C)(C)C` [48a, (2S,4R)-1-((S)-2-acetamido-3,3-dimethylbutanoyl)-N—((S)-1-(4-(tert-butyl)phenyl)ethyl)-4-hydroxypyrrolidine-2-carboxamide]: the IC50 turned out to be 58.9 ± 5.26 µM. Still for that read-out and setting: the figure for `CC(=O)N[C@H](C(=O)N1C[C@H](O)C[C@H]1C(=O)N[C@@H](C)c1ccc(C#N)cc1)C(C)(C)C` [45a, (2S,4R)-1-((S)-2-acetamido-3,3-dimethylbutanoyl)-N—((S)-1-(4-cyanophenyl)ethyl)-4-hydroxypyrrolidine-2-carboxamide] is 4.83 ± 0.418 µM. As for `CC(=O)N[C@H](C(=O)N1C[C@H](O)C[C@H]1C(=O)N[C@@H](C)c1ccc(C(C)C)cc1)C(C)(C)C` [47a, (2S,4R)-1-((S)-2-acetamido-3,3-dimethylbutanoyl)-4-hydroxy-N—((S)-1-(4-isopropylphenyl)ethyl)pyrrolidine-2-carboxamide], the IC50 was found to be 41 ± 6.67 µM. Take `CC(=O)N[C@H](C(=O)N1C[C@H](O)C[C@H]1C(=O)N[C@@H](C)c1ccc(-c2scnc2C)cc1)C(C)(C)C` [compound 11, (2S,4R)-1-((S)-2-Acetamido-3,3-dimethylbutanoyl)-4-hydroxy-N—((S)-1-(4-(4-methylthiazol-5-yl)phenyl)ethyl)pyrrolidine-2-carboxamide, reference compound]: the IC50 came to 0.196 ± 0.006 µM.

In a further assay the target is T2, ERα (Homo sapiens, UniProt P03372).
T2 sequence (P03372 1-595): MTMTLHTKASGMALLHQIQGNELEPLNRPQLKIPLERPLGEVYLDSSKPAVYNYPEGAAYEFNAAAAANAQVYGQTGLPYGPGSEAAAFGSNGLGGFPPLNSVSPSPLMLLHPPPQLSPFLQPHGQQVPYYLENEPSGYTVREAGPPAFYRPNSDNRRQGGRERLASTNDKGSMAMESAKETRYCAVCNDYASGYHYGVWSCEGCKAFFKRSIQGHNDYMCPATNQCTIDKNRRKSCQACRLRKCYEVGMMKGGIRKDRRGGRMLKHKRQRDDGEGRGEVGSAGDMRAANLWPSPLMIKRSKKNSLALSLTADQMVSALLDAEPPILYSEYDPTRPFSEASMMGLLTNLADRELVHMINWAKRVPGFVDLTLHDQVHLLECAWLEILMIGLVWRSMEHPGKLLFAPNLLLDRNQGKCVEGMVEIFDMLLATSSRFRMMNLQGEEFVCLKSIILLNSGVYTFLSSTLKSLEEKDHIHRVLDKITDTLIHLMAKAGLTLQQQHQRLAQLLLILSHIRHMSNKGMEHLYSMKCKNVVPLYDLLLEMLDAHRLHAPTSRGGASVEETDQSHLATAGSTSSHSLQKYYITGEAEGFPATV
As to the kind of experiment: ER degradation by Western blotting in MCF-7 cells. Set-up: host or cells: MCF-7. The conditions noted are these: 1 nM, 10 nM and 100 nM, 4 h, linkers containing 6-9 carbon atoms. Format: cell-based. The procedure:
FIG. 1 is an image showing the Western blotting analysis of ER protein in MCF-7 cells treated with Compounds of the Disclosure and control compounds. Cells were treated with different compounds for 4 h and whole cell lysates were then analyzed by Western blotting to examine the level of ER protein. GADPH protein was used for the loading control. The numbers below the panel represent the ERα/GADPH ratio normalized with the DMSO control at 100.
FIG. 2 is an image showing the Western blotting analysis of ER protein in the MCF-7 cells treated with indicated compounds at 1 nM, 10 nM and 100 nM. MCF-7 cells were treated with different compounds for 4 h and whole cell lysates were analyzed by Western blotting to examine the level of ER protein. GADPH protein was used for the loading control. The numbers below the panel represent the ERα/GADPH ratio normalized with the DMSO control at 100.
FIG. 7 is an image showing the ERα degradation dose-response Western blotting for compound 32 at 4 h in MCF-7 cells.
FIG. 9 is an image showing the time course of ERα degradation by Western blotting by compound 32 (30 nM) and fulvestrant (30 nM) in the MCF-7 cells.
Cell Culture. Human breast cancer cell lines MCF-7 (ATCC® HTB-22™) and T47D (ATCC® HTB-133™) were purchased from the American Type Culture Collection (ATCC), Manassas, Va., and maintained and cultured in Dulbecco's Modified Eagle's medium (DMEM) containing 10% fetal bovine serum, 1 unit/ml of penicillin and 1 μg/ml of streptomycin. Cells with 3-8 passages after purchase were used in experiments as indicated.
Western Blot Analysis. Western blot analysis was performed essentially as described previously (Hu et al, 2015, PMID: 26358219). Cells treated with indicated compounds were lysed in Radioimmunoprecipitation Assay Protein Lysis and Extraction Buffer (25 mmol/L Tris.HCl, pH 7.6, 150 mmol/L NaCl, 1% Nonidet P-40, 1% sodium deoxycholate, and 0.1% sodium dodecyl sulfate) containing proteinase inhibitor cocktail (Roche Diagnostics, Mannheim, Germany). After determination of protein concentration by BCA assay (Fisher Scientific, Pittsburgh, Pa.), equal amounts of total protein were electrophoresed through 10% SDS-polyacrylamide gels. The separated protein bands were transferred onto PVDF membranes (GE Healthcare Life Sciences, Marlborough, Mass.) and blotted against different antibodies, as indicated. The human estrogen receptor a antibodies (AB16460) were purchased from Abeam, Inc., Cambridge, Mass. The membranes were reblotted with horseradish peroxidase-conjugated anti-glyceraldehyde-3-phosphate dehydrogenase antibody (G9295) from Sigma-Aldrich Corporation, St. Louis, Mo. The blots were scanned and the band intensities were quantified using GelQuant.NET software as described in biochemlabsolutions.com. The relative mean intensity of target proteins was expressed after normalization to the intensity of glyceraldehyde-3-phosphate dehydrogenase bands from individual repeats.
(A western blot detects proteins with antibodies after separation by electrophoresis.)
With `CCN(CCCCCC(=O)N[C@H](C(=O)N1C[C@H](O)C[C@H]1C(=O)N[C@@H](C)c1ccc(-c2scnc2C)cc1)C(C)(C)C)CCOc1ccc(C(=O)c2c(-c3ccc(O)cc3)sc3cc(O)ccc23)cc1` [compound 18, (2S,4R)-1-((S)-2-(6-(Ethyl(2-(4-(6-hydroxy-2-(4-hydroxyphenyl)benzo[b]thiophene-3-carbonyl)phenoxy)ethyl)amino)hexanamido)-3,3-dimethylbutanoyl)-4-hydroxy-N—((S)-1-(4-(4-methylthiazol-5-yl)phenyl)ethyl)pyrrolidine-2-carboxamide], the “ER degradation (Western blotting)” value is listed as “surprisingly effective in inducing ER degradation at concentrations as low as 1 nM”. The same measure, in the same setting: the entry for `CCN(CCCCCCCCCC(=O)N[C@H](C(=O)N1C[C@H](O)C[C@H]1C(=O)N[C@@H](C)c1ccc(-c2scnc2C)cc1)C(C)(C)C)CCOc1ccc(C(=O)c2c(-c3ccc(O)cc3)sc3cc(O)ccc23)cc1` [compound 21, (2S,4R)-1-((S)-2-(10-(Ethyl(2-(4-(6-hydroxy-2-(4-hydroxyphenyl)benzo[b]thiophene-3-carbonyl)phenoxy)ethyl)amino)decanamido)-3,3-dimethylbutanoyl)-4-hydroxy-N—((S)-1-(4-(4-methylthiazol-5-yl)phenyl)ethyl)pyrrolidine-2-carboxamide] is “surprisingly effective in inducing ER degradation at concentrations as low as 1 nM”; for `CCN(CCCCCCCCC(=O)N[C@H](C(=O)N1C[C@H](O)C[C@H]1C(=O)N[C@@H](C)c1ccc(-c2scnc2C)cc1)C(C)(C)C)CCOc1ccc(C(=O)c2c(-c3ccc(O)cc3)sc3cc(O)ccc23)cc1` [compound 20, (2S,4R)-1-((S)-2-(9-(Ethyl(2-(4-(6-hydroxy-2-(4-hydroxyphenyl)benzo[b]thiophene-3-carbonyl)phenoxy)ethyl)amino)nonanamido)-3,3-dimethylbutanoyl)-4-hydroxy-N—((S)-1-(4-(4-methylthiazol-5-yl)phenyl)ethyl)pyrrolidine-2-carboxamide] it is “surprisingly effective in inducing ER degradation at concentrations as low as 1 nM”.

Consider `CCN(CCCCCCC(=O)N[C@H](C(=O)N1C[C@H](O)C[C@H]1C(=O)N[C@@H](C)c1ccc(-c2scnc2C)cc1)C(C)(C)C)CCOc1ccc(C(=O)c2c(-c3ccc(O)cc3)sc3cc(O)ccc23)cc1` [compound 19, (2S,4R)-1-((S)-2-(7-(Ethyl(2-(4-(6-hydroxy-2-(4-hydroxyphenyl)benzo[b]thiophene-3-carbonyl)phenoxy)ethyl)amino)heptanamido)-3,3-dimethylbutanoyl)-4-hydroxy-N—((S)-1-(4-(4-methylthiazol-5-yl)phenyl)ethyl)pyrrolidine-2-carboxamide], for which the “ER degradation (Western blotting)” value is on record as “surprisingly effective in inducing ER degradation at concentrations as low as 1 nM”. Still for that read-out and setting: the entry for `CCN(CCCCCCCC(=O)N[C@H](C(=O)N1C[C@H](O)C[C@H]1C(=O)N[C@@H](C)c1ccc(-c2scnc2C)cc1)C(C)(C)C)CCOc1ccc(C(=O)c2c(-c3ccc(O)cc3)sc3cc(O)ccc23)cc1` [compound 15, (2S,4R)-1-((S)-2-(8-(Ethyl(2-(4-(6-hydroxy-2-(4-hydroxyphenyl)benzo[b]thiophene-3-carbonyl)phenoxy)ethyl)amino)octanamido)-3,3-dimethylbutanoyl)-4-hydroxy-N—((S)-1-(4-(4-methylthiazol-5-yl)phenyl)ethyl)pyrrolidine-2-carboxamide] is “surprisingly effective in inducing ER degradation at concentrations as low as 1 nM”.

Broadly, the IC50 is the concentration that inhibits the measured activity by half.

(Values after patent publication US20220079931A1, “ESTROGEN RECEPTOR PROTEIN DEGRADERS” (THE REGENTS OF THE UNIVERSITY OF MICHIGAN, priority 2019, published 2022).)
